The values that follow come from PubChem BioAssay (NCI).

Test systems include A498 renal; EKVX NSCLC; K-562 leukemia; NCI-H460 lung; SF-295 CNS; SK-MEL-5 melanoma; SNB-19 CNS; SR leukemia; SW-620 colon; TK-10 renal.
Common to all, as to assay: growth of human tumour cells (NCI), 48 h

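Growth conditions: 96-well plates. Treatment: test compound, 48 hours, 5 concentrations. Analysis: linear interpolation between bracketing concentrations; unreached endpoints set to highest concentration. GI50 = concentration required for 50% inhibition of growth. The concentration for full growth arrest is given as TGI.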

`CCC(=C/[C@H](C)C/C=C/C(C)=C/[C@@H](C)C(=O)[C@@H](C)[C@H](O)[C@@H](C)CC)/C=C/[C@H]1OC(=O)C=C[C@H]1C`: the GI50 is < 0.01 µM with A498 renal; 0.288 µM in the assay on EKVX NSCLC; < 0.01 µM in the assay on K-562 leukemia; < 0.01 µM in the assay on NCI-H460 lung; < 0.01 µM in the assay on SF-295 CNS; < 0.01 µM with SK-MEL-5 melanoma. Besides, the GI50 in the assay on SNB-19 CNS, in the assay with SR leukemia, in the assay on SW-620 colon and with TK-10 renal was < 0.01 µM each time. Moreover, the TGI is < 0.024 µM with A498 renal; 11.6 µM with EKVX NSCLC; < 0.01 µM in the assay on K-562 leukemia; 1.1 µM in the assay on NCI-H460 lung; 1.36 µM in the assay on SF-295 CNS; 0.0437 µM with SK-MEL-5 melanoma. The TGI in the assay on SNB-19 CNS stood at 1.29 µM; with SW-620 colon, 1.9 µM; in the assay on TK-10 renal, 1.52 µM.
`CCN(CC)C(=O)COc1ccc(Br)cc1Br`: the TGI in the assay with A498 renal was > 100 µM; with EKVX NSCLC, 58 µM; in the assay on K-562 leukemia it was > 100 µM; with NCI-H460 lung, > 100 µM; with SF-295 CNS, > 100 µM; in the assay on SK-MEL-5 melanoma, > 100 µM. For the same compound, the TGI with SNB-19 CNS, with SR leukemia, with SW-620 colon and in the assay with TK-10 renal was > 100 µM each time.
Turning to `COc1ccc(-c2ccc(C3CC(c4ccc(Cl)cc4)=NN3)o2)c([N+](=O)[O-])c1` (centres undefined), the GI50 with A498 renal was > 100 µM; in the assay on EKVX NSCLC it was > 100 µM; in the assay with K-562 leukemia, > 100 µM; in the assay on NCI-H460 lung, > 100 µM; in the assay with SF-295 CNS it was 43.5 µM; in the assay on SK-MEL-5 melanoma, > 100 µM. Also, the GI50 in the assay with SNB-19 CNS, in the assay with SR leukemia, with SW-620 colon and in the assay with TK-10 renal was > 100 µM throughout. In addition, the TGI with A498 renal, in the assay on EKVX NSCLC, in the assay with K-562 leukemia, in the assay with NCI-H460 lung, in the assay with SF-295 CNS and in the assay with SK-MEL-5 melanoma was > 100 µM throughout. The TGI in the assay with SNB-19 CNS, in the assay with SR leukemia, in the assay with SW-620 colon and in the assay with TK-10 renal was > 100 µM in each case.
Consider `COc1cc(-n2cc(-c3ccc(Cl)cc3)[nH]c2=O)cc(OC)c1OC`, for which the GI50 is 19.8 µM in the assay with A498 renal; 34.1 µM in the assay with EKVX NSCLC; > 100 µM with K-562 leukemia; 39.6 µM with NCI-H460 lung; 30.9 µM in the assay with SF-295 CNS; 31.1 µM with SK-MEL-5 melanoma. Further, the GI50 in the assay with SNB-19 CNS was 32.6 µM; in the assay on SR leukemia it was > 100 µM; with SW-620 colon it was > 100 µM; in the assay on TK-10 renal, 18.5 µM. The TGI was 44.8 µM in the assay on A498 renal; > 100 µM in the assay on EKVX NSCLC; > 100 µM with K-562 leukemia; > 100 µM with NCI-H460 lung; > 100 µM in the assay with SF-295 CNS; > 100 µM in the assay on SK-MEL-5 melanoma. Besides, the TGI is > 100 µM with SNB-19 CNS, > 100 µM in the assay with SR leukemia, > 100 µM with SW-620 colon and 42.8 µM in the assay on TK-10 renal.
As for `CCOC(=O)c1c(C(F)(F)F)n([O-])c2ccc(OC)cc2[n+]1=O`, the GI50 in the assay on A498 renal was 11.3 µM; in the assay with EKVX NSCLC, 3.67 µM; with K-562 leukemia it was 3.76 µM; with NCI-H460 lung it was 3.8 µM; in the assay with SF-295 CNS, 2.61 µM; with SK-MEL-5 melanoma it was 1.7 µM. Further, the GI50 in the assay on SNB-19 CNS was 3.77 µM; in the assay on SR leukemia, 2.37 µM; with SW-620 colon it was 5.79 µM; with TK-10 renal it was 9.68 µM. For the same compound, the TGI was 33.7 µM in the assay on A498 renal; 60.5 µM in the assay with EKVX NSCLC; 24.9 µM in the assay with K-562 leukemia; 15.7 µM in the assay with NCI-H460 lung; 8.79 µM in the assay with SF-295 CNS; 3.31 µM with SK-MEL-5 melanoma. Further, the TGI in the assay on SNB-19 CNS was 56.6 µM; with SR leukemia it was 6.74 µM; in the assay with SW-620 colon, > 100 µM; in the assay on TK-10 renal it was > 100 µM.
`C[C@@]12CCC(=O)C=C1CC[C@H]1C2=CC[C@]2(C)C1CC[C@@]2(C)O` (some centres undefined): the TGI with A498 renal, with EKVX NSCLC, in the assay on K-562 leukemia, with NCI-H460 lung, in the assay with SF-295 CNS and in the assay on SK-MEL-5 melanoma was > 100 µM each time. The TGI in the assay with SNB-19 CNS, in the assay with SR leukemia, in the assay on SW-620 colon and in the assay with TK-10 renal was > 100 µM throughout.
As to `CC(C)(C)c1ccc(C(O)c2ccc(C(C)(C)C)cc2)cc1`, the TGI in the assay with A498 renal was determined as 32.9 µM; with EKVX NSCLC, 32.3 µM; with K-562 leukemia, 33.3 µM; in the assay with NCI-H460 lung, 26.6 µM; with SF-295 CNS it was 27 µM; in the assay with SK-MEL-5 melanoma it was 30.4 µM. For the same compound, the TGI amounted to 31.8 µM in the assay with SNB-19 CNS, 41.7 µM in the assay with SR leukemia, 27.9 µM in the assay with SW-620 colon and 35.6 µM with TK-10 renal.
For the compound `CSc1nc2sc3cc(Cl)ccc3n2c(=N)c1C#N`, the GI50 was 29.6 µM with A498 renal; 10.7 µM in the assay with EKVX NSCLC; > 52.4 µM with K-562 leukemia; > 79.7 µM with NCI-H460 lung; 2.21 µM with SF-295 CNS; 3.2 µM in the assay with SK-MEL-5 melanoma. The GI50 is > 64.2 µM with SNB-19 CNS, 17.6 µM in the assay with SR leukemia, 38.2 µM in the assay on SW-620 colon and 14.1 µM with TK-10 renal. The TGI is > 100 µM in the assay on A498 renal; > 100 µM in the assay with EKVX NSCLC; > 100 µM with K-562 leukemia; > 100 µM in the assay with NCI-H460 lung; 16.1 µM in the assay on SF-295 CNS; > 25.9 µM in the assay on SK-MEL-5 melanoma. In addition, the TGI in the assay with SNB-19 CNS was > 100 µM; in the assay on SR leukemia, > 100 µM; with SW-620 colon, > 100 µM; with TK-10 renal, > 73.3 µM.
Regarding `CC12CCC[C@@](C)(C(=O)OC3OC(CO)C(O)C(O)C3O)[C@H]1CCC13CC4CC(OC4(CO)[C@H]1O)[C@@H]23` (some centres undefined), the TGI in the assay with A498 renal, in the assay with EKVX NSCLC, in the assay with K-562 leukemia, with NCI-H460 lung, in the assay on SF-295 CNS and in the assay with SK-MEL-5 melanoma was > 100 µM in each case. For the same compound, the TGI in the assay with SNB-19 CNS is > 100 µM; with SR leukemia it was > 100 µM; with SW-620 colon it was 31 µM; with TK-10 renal it was > 100 µM.
